Test results published in patent EP0825877B1, “COMPOSITION FOR PREVENTION OF POSTERIOR CAPSULE OPACIFICATION” (Pfizer Health AB, priority 1995, dated 1996).

Experiments:
[1] = system: secondary cataract formation; test: In vivo secondary cataract formation (PCO wet mass), 5-FU single dose versus slow release; set-up: species or system rabbits; conditions: for inhibition of PCO: PCO measured as wet mass
Description: 5 mg of 5-FU was given to rabbits either as a single dose (instant release) or as a slow release formulation prepared according to Example 3 where 5 mg 5-FU was released over 3 or 12 days in vivo. The amount of secondary cataract formation in the rabbits were evaluated according to Lundgren at al (Lundgren B, Jonsson E and Rolfsen W, 1992, Acta Ophthalmol. Suppl 205:25-28). The single saline dose of 5-FU reduced the secondary cataract formation by 50% while the SR-formulation (SR-3 and SR-10) reduced the secondary cataract formation by 70 and 100% respectively.

[2] = Diffusion experiment in a Sundelöf cell; type: physicochemical; conditions: 100 µg/ml of Doxorubicin; Sundelöfcell; hyaluronate 10 mg/ml
Description: Doxorubicin is slowly released from the hyaluronate-doxorubicine solution. […] The diffusion of Doxorubicine out of the hyaluronate solution is more than three times slower than the diffusion of doxorubicine in water. In a diffusion experiment using 100 µg/ml of Doxorubicin in a Sundelöfcell (Sundelöf L-O, 1982, Anal. Biochem, 127,282-286, Laurent T C, Preston B N Sundelöf L-O Van Damme M P, 1982, Anal. Biochem, 127, 287-292), it took 20 hours for 20 % of doxorubicin in water to diffuse into the upper compartment as compared to 70 hours for the doxorubicine in hyaluronate (10 mg/ml).

[3] = system: secondary cataract formation; test: In vivo study in rabbits: secondary cataract weighed two months after phacoemulsification, IOL implantation and doxorubicin injection; set-up: species or system Albino rabbits; conditions: 1 µg doxorubicin; 100 µl into the capsular bag behind the IOL; two months postoperatively
Description: Albino rabbits were used. In both eyes the crystalline lens was removed by phacoemusification. In both eyes a PMMA IOL was implanted into the capsular bag. In one eye 100 µl of the doxorubicin-Healon slution was injected into the capsular bag behind the IOL. The fellow eye received 100 µ 1 Healon. Two months postoperatively the animals were killed, and the secondary cataracts were removed and weighed to the neariest mg. In one group the doxorubicin was injected dissolved in ta buffer solution instead of Healon. This in order to compare the efficacy when doxorubicin was dissolved in either Healon or buffer. There was a dose dependent inhibitory effect of doxorubicin dissolved in Healon. The doses of 3, 1 and 0.3 µg all gave a significant decrease of the secondary cataract formation. When comparing the dosage 1 µg injected in either Healon of buffer, there was a significant better inibitory effect when doxorubicin was delivered in Healon.
The amount of secondary cataract tissue was typically: […]

time for 20 % of doxorubicin to diffuse into the upper compartment [2]	SMILES	inhibition of PCO ([1]; 5 mg administered as a single dose)	inhibition of PCO ([1]; 5 mg delivered over 2-3 days)	inhibition of PCO ([1]; 5 mg delivered over 10-12 days)	reduction of secondary cataract formation ([1]; 5 mg of 5-FU, single saline dose or slow release over 3 or 12 days)	amount of secondary cataract tissue [3]
	O=c1[nH]cc(F)c(=O)[nH]1 [5-FU, 5-fluoro-uracil]	50%	70%	> 90%	50%	
20 h	COc1cccc2c1C(=O)c1c(O)c3c(c(O)c1C2=O)C[C@@](O)(C(=O)CO)C[C@@H]3O[C@H]1C[C@H](N)[C@H](O)[C@H](C)O1 [doxorubicin in buffer, doxorubicin]					65 ± 15 mg
